Patent publication US6372793B1, “Method for treatment of a neurological disease characterized by impaired neuromodulator function” (Florida Agricultural & Mechanical University, priority 1999, dated 2002)
Where a name gives a salt, the structure may show the parent alone.

What was measured:
rat nerve cell membranes = assay: In vitro association of [3H-methyl]SAM or 3H-MPP+ with rat nerve cell membranes; format: binding; conditions: for effect on association of [3H-methyl]SAM radioactivity with membranes: 100 mmM non-radioactive compound in the incubation mixture; for effect on 3H-MPP+ association with membranes: non-radioactive competitor
Procedure: Rat brain (1.76 g) was homogenized in 20 ml of 50 mM Tris-HCl, pH 7.4 containing 2.5 mM EDTA and 0.02% bovine serum albumin and centrifuged at 900×g for 10 min. The supernatant was transferred and the pellet re-suspended in the same buffer and centrifuged. The 900×g supernatants were combined and centrifuged at 20,000×g for 40 min. The supernatant was removed and the pellet resuspended in 5 ml of buffer, aliquoted and frozen at −70° C. until needed.
To understand whether the behavioral effects of SAM were due to interactions with cellular macromecules, [^3H-methyl]SAM (0.2 mmCi) was incubated with rat nerve cell membranes (30 mmg of protein) at 37° C. At the appropriate incubation periods, the reaction tubes were removed and centrifuged (13,000 rpm, MSE Centaur) for 10 min. The supernatant was discarded and the pellet suspended in scintillation fluid and their total radioactive content determined by scintillation counting.

rats [1] = assay: Tremors and PD-like symptoms induced by icv SAM, recorded on the Tremor-Scan Monitor; format: in vivo, rat
Procedure: (§1) Rats were cannulated for subsequent injections into the lateral ventricle as previously described (Charlton and Mack, 1994). Briefly, each rat was anesthetized with 400 mg/kg of chloral hydrate. A stainless steel guide cannula was stereotaxically placed 1.5 mm lateral and 0.6 mm caudal to the Bregma with the tip extended to the inner surface of the cranium, above the dura mater. At least 2 days following cannulation, injections were made through the cannula into the lateral ventricle with a 26 gauge insertion cannula, pre-measured to descend 5 mm from the surface of the skull into the lateral ventricle. Each injected rat was put in a cage which was then placed on the sensor assembly of the Tremor-Scan Monitor. The recording parameters were set according to the manufacturer's instructions by adjusting the Gain on the instrument to 4 which insured that most of the signals with large or small amplitudes remained within the detection limit or not reduced to the baseline respectively, as viewed on the computer monitoring screen. The noise that could interfere with the SAM-induced tremors is usually of low amplitude and was reduced to baseline levels by this gain setting. This setting was used for all subsequent recording and storage of the vibration signals due to tremor-like activities of the
The Tremor Monitor software, which allows for the determination of 1) the signal amplitude, 2) the number of cycles in each activity or episode, 3) the number of activities and 4) the duration of each activity or episode, aided in the storage and subsequent retrieval and analysis of the recorded activity profiles. Analysis of the stored data was achieved by altering the minimum and maximum frequency, amplitude and number of cycles to reflect the unique properties of each kind of movement and thus delineate the SAM-induced tremors from non-tremor activity signals.
The dose-dependent effects of SAM was also determined in cannulated rats injected with 0 (PBS), 0.5, 0.75 and 1.0 mmmol of SAM. Their tremor activities were recorded on the Tremor-Scan monitor for 20 min.
To determine the duration and magnitude of SAM-induced tremors, groups of cannulated rats were injected either with 1 mmmol of SAM or with 5 mml of PBS, as control. The animals were monitored on the Tremor-Scan Monitor for a duration of 2 h starting immediately after the injections.

SAM-induced tremors [2] = assay: Effect of L-DOPA, SAH and NADA on SAM-induced tremors; format: in vivo, rat; conditions: for total duration of tremors / number of tremors: 20 min; for effect on the SAM-induced PD-like symptoms: icv before SAM
Procedure: as §1
Cannulated rats were injected either with PBS (5 mml), L-DOPA (1.5 mmmol), SAH (1.0 mmmol) or NADA (1.0 mmmol) followed by an injection of either 0.75 or 1.0 mmmol of SAM. Each compound was dissolved or finely suspended in PBS. They were then monitored for tremors on the Tremor Monitor for a period of 20 min.

SAM-induced tremors [3] = assay: Effect of farnesylcysteine/prenylcysteine analogs on SAM-induced tremors and PD-like symptoms; format: in vivo, rat; conditions: 20 min
Procedure: as §1
AFC, FTP and FTS were each suspended in PBS and dissolved by adjusting the pH to 7.4 with NaOH followed by the addition of more PBS to make 0.2 mmol/ml solutions. PBS or each compound, dissolved in 5 mml of solution, was injected into the lateral ventricle of cannulated rats 5 min prior to SAM injections. SAM (1 mmmol in 5 mml of PBS) was injected and the movements recorded over a 20 min period as described above.

[4] = system: 6-hydroxydopamine-lesioned rats; assay: Amphetamine-induced ipsiversive rotation of 6-hydroxydopamine-lesioned rats (RotoScan Rotometer); format: in vivo, rat
rat brain membranes = assay: SAM-dependent methylation of FC analogs by rat brain membranes; format: biochemical; conditions: 60 min; for methylation by rat nerve cell membranes in the presence of [3H-methyl]SAM: 200 mmM analog, 37° C.
Procedure: AFC, FTP and FTS (200 mmM) were each incubated for 60 min with rat brain membranes (240 mmg of protein) at 37° C. in 100 mM Tris-HCl, pH 7.4 containing SAM (10 mmM, 1.3 mmCi [^3H-methyl]-SAM), 5 mM MgSO4 and 0.1 M NaCl in a total incubation volume of 400 mml. The reactions were stopped with 5% TFA and chilled on ice. Hexane (400 mml) was added and the contents of the tubes mixed thoroughly. This was followed by centrifugation at 20,000 g for 2 min. The upper hexane layer was removed and 250 mml analyzed by reversed-phase HPLC on a Whatman column (C18, 4.6×150 mm). Methylated FC analogs were eluted from the column at a rate of 1 ml/min with a 0 to 100% gradient of acetonitrile in 0.1% TFA from the 3rd to the 15th min of each run. This composition was maintained for a further 2 min before re-equilibration of the column for the next sample. Detection was conducted with an online radiochromatographic detection system (INUS β-ram, Tampa, Fla.).

rats [5] = assay: Effect of farnesylcysteine analogs on the movements of rats (Animal Activity Monitor); format: in vivo, rat; conditions: 1 mmmol icv alone or in combination with 1 mmmol of SAM
Procedure: Cannulated rats were injected (icv) with AFC or FTP (1 mmmol, 5 mml) in combination with PBS or 1 mmmol of SAM, injected similarly 5 min after injection of the FC analogs. Their movements were measured in an Animal Activity Monitor (AccuScan Electronics, Inc., Columbus, Ohio) and compared to those of control animals that received PBS.

[6] = 1 mmmol SAM icv, first 10 min interval of 2 h recording
[7] = 20 min, re-analysis with minimum amplitude 20 and minimum cycles per activity 20
[8] = SAM icv, 20 min recording, frequency window 8 to 20, minimum amplitude 10, minimum 10 cycles
[9] = raw data, 20 min monitoring, minimum amplitude 10, minimum cycles 10
[10] = 1 mmmol NADA or SAH icv followed by 1 mmmol SAM, or SAM alone
[11] = 1.5 mmmol L-DOPA icv before 0.75 mmmol SAM, or SAM alone
[12] = 0 mmmol FC analog followed by 1 mmmol SAM
[13] = 1 mmmol FC analog icv 5 min before 1 mmmol SAM

Question: Which “effect on association of [3H-methyl]SAM radioactivity with membranes” value (rat nerve cell membranes) does the source give for `C[n+]1ccc(-c2ccccc2)cc1` [MPP^+, 1-methyl-4-phenylpyridinium ion] here?
Answer: No effect

Question: Which number of tremors (rats [1]; 0.5 mmmol SAM icv, 20 min) does the source give for `C[S+](CC[C@H](N)C(=O)O)C[C@H]1O[C@@H](n2cnc3c(N)ncnc32)[C@H](O)[C@@H]1O` (stereo partly drawn) [SAM, S-Adenosyl-L-methionine] here?
Answer: minimal

Question: And the “total duration of tremors” value (rats [1]; 0.5 mmmol SAM icv, 20 min)?
Answer: minimal

Question: And the “increase in number of tremors” value (rats [1]; 0.75 mmmol SAM icv, 20 min)?
Answer: 7 fold

Question: What about the “increase in total duration of tremors compared to the 0.5 mmmol injection” value (rats [1]; 0.75 mmmol SAM icv, 20 min) of the same compound?
Answer: 9 fold

Question: What about the “rate of tremor episodes during the first 10 min” value (rats [1]; 1 mmmol SAM icv) of the same compound?
Answer: about 2 episodes per min

Question: What about the “time that abnormal posture, hypokinesia and rigidity remained” value (rats [1]; 1 mmmol SAM icv) of the same compound?
Answer: about 90 min

Question: What about the “increase in number of tremors” value (rats [1]; 1 mmmol SAM icv, 20 min) of the same compound?
Answer: 8 fold

Question: What about the “increase in total duration of tremors compared to the 0.5 mmmol injection” value (rats [1]; 1 mmmol SAM icv, 20 min) of the same compound?
Answer: 12 fold

Question: What about the “number of tremors in the first 10 min interval” value (rats [1]; [6]) of the same compound?
Answer: 19±4

Question: And the “total duration of tremors within the first 10 min” value (rats [1]; [6])?
Answer: 120 ± 20 s

Question: What about the “number of tremor activities” value (rats [1]; [7]) of the same compound?
Answer: 70±8

Question: And the “total duration of tremor activity” value (rats [1]; [7])?
Answer: 360 ± 18 s

Question: And the average amplitude (rats [1]; [8])?
Answer: 42.3±5

Question: What about the frequency (rats [1]; [8]) of the same compound?
Answer: 12±0.1

Question: And the “number of cycles (waves) per activity” value (rats [1]; [8])?
Answer: 54±6

Question: What about the “time to onset of tremors, hypokinesia, rigidity and abnormal posture after injection” value (rats [1]; SAM into the lateral ventricle) of the same compound?
Answer: 0.5 to 2 min

Question: What about the number of activities (rats [1]; [9]) of the same compound?
Answer: 92±12

Question: What about the “total duration of tremors” value (rats [1]; [9]) of the same compound?
Answer: 470 ± 50 s

Question: What about the “total duration of tremors” value (SAM-induced tremors [2]; [10]) of the same compound?
Answer: 273±128

Question: What about the number of tremors (SAM-induced tremors [2]; [11]) of the same compound?
Answer: 33±7

Question: And the “total duration of tremors” value (SAM-induced tremors [2]; [11])?
Answer: 170 ± 34 s

Question: And the “change of membrane-associated radioactivity after addition of non-radioactive compound (reversibility)” value (rat nerve cell membranes; 100 mmM non-radioactive SAM added after 2 h incubation with [3H-methyl]SAM)?
Answer: neither increased nor decreased

Question: And the “effect on association of [3H-methyl]SAM radioactivity with membranes” value (rat nerve cell membranes)?
Answer: inhibited

Question: And the “effect on 3H-MPP+ association with membranes” value (rat nerve cell membranes)?
Answer: little affected

Question: And the duration of tremors (SAM-induced tremors [3]; [12])?
Answer: 310 ± 70 s

Question: And the number of tremors (SAM-induced tremors [3]; [12])?
Answer: 46±10

Question: Which “radioactivity associated with the membranes” value (rat nerve cell membranes; [3H-methyl]SAM incubated with rat nerve cell membrane preparation, no competitor) does the source give for `C[S+](CC[C@H](N)C(=O)[O-])C[C@H]1O[C@@H](n2cnc3c(N)ncnc32)[C@H](O)[C@@H]1O` (stereo partly drawn) [[^3H-methyl]SAM, S-[methyl-^3H]-SAM] here?
Answer: about 6000 DPM

Question: For `Nc1ncnc2c1ncn2[C@@H]1O[C@H](CSCC[C@H](N)C(=O)O)[C@@H](O)[C@H]1O` [SAH, S-adenosyl-L-homocysteine], which “total duration of tremors” value (SAM-induced tremors [2]; [10]) is on record?
Answer: 212±52

Question: And the “effect on the SAM-induced PD-like symptoms” value (SAM-induced tremors [2])?
Answer: little or no effect

Question: What about the “radioactivity associated with the membranes in presence of competitor” value (rat nerve cell membranes; [3H-methyl]SAM, 100 mmM competitor in the incubation mixture) of the same compound?
Answer: about 2000 DPM

Question: And the “effect on 3H-MPP+ association with membranes” value (rat nerve cell membranes)?
Answer: little affected

Question: `C[C@H](N)Cc1ccccc1` [amphetamine, d-amphetamine sulfate] was tested. Which “ipsiversive rotations within 90 min” value ([4]; amphetamine ip (5 mg/kg) alone, 7 days after intrastriatal 6-OHDA) did it give?
Answer: 390±130

Question: How did the “methylation by rat nerve cell membranes in the presence of [3H-methyl]SAM” value (rat brain membranes) turn out when `CC(=O)N[C@@H](CSC/C=C(\C)CC/C=C(\C)CCC=C(C)C)C(=O)O` [AFC, N-acetyl-S-farnesyl-L-cysteine] was run?
Answer: avid methyl acceptors

Question: And the tremors observed (SAM-induced tremors [3]; 0.5 mmmol FC analog icv 5 min before 1 mmmol SAM)?
Answer: significant reduction of tremors

Question: What about the tremors observed (SAM-induced tremors [3]; [13]) of the same compound?
Answer: no tremors

Question: What about the movement activity (rats [5]) of the same compound?
Answer: significantly higher degree of movement activity

Question: And the net rotations ([4]; AFC alone, no amphetamine)?
Answer: only few net rotations

Question: What about the “increase of amphetamine-induced rotation” value ([4]; amphetamine ip plus AFC 1 mmmol icv, versus amphetamine alone) of the same compound?
Answer: 2 fold

Question: What about the “ipsiversive rotations within 90 min” value ([4]; amphetamine ip plus AFC 1 mmmol into the left lateral ventricle) of the same compound?
Answer: 830±110

Question: What about the “ipsiversive rotations within 90 min” value ([4]; amphetamine ip plus AFC 1 mmmol into the right lateral ventricle) of the same compound?
Answer: 790±160

Question: Which results are given for `CC(=O)NCCc1ccc(O)c(O)c1` [NADA, N-acetyldopamine]?
Answer: total duration of tremors (SAM-induced tremors [2]; [10]): 200±43; effect on the SAM-induced PD-like symptoms (SAM-induced tremors [2]): little or no effect

Question: Which results are given for `CC(C)=CCCC(C)=CCCC(C)=CCSc1ccccc1C(=O)O` [FTS, farnesylthiosalicylic acid]?
Answer: methylation by rat nerve cell membranes in the presence of [3H-methyl]SAM (rat brain membranes): never methylated; inhibition of the methylation of AFC and FTP (rat brain membranes; indicated concentrations of FTS): dose-dependently inhibited; tremors observed (SAM-induced tremors [3]; [13]): significantly fewer tremors

Question: Which results are given for `N[C@@H](Cc1ccc(O)c(O)c1)C(=O)O` [L-DOPA, L-dihydroxyphenylalanine]?
Answer: number of tremors (SAM-induced tremors [2]; [11]): 25±4; total duration of tremors (SAM-induced tremors [2]; [11]): 111 ± 22 s; effect on the SAM-induced PD-like symptoms (SAM-induced tremors [2]): little or no effect
